Values of other authors, collected in patent US7858656B2, “Controlled release formulations containing an active ingredient, preferably melatonin and the method of preparation” (Ambros Pharma S.R.L., priority 2000, dated 2010).

Details: in various species, including man

In the case of `COc1ccc2[nH]cc(CCNC(C)=O)c2c1` [melatonin, N-acetyl-5-methoxytryptamine], the half-life of melatonin is given as 20 to 40 min.
